{"source": "ChEMBL document CHEMBL4257591", "about": "(J Med Chem, 2018)", "key": {"Staphylococcus aureus [1]": {"tested_on": "Staphylococcus aureus", "assay": "Induction of membrane permeabilization in Staphylococcus aureus KCTC 1621 at 2 to 8 times MIC concentration up to 300 secs by SYTOX green uptake assay", "type": "functional, organism-based"}, "[2]": {"assay": "Hemolytic activity in sheep RBC assessed as free hemoglobin level at 16 uM by ELISA relative to control", "type": "ADME, cell-based, Ovis aries, Erythrocyte", "details": "sheep red blood cells (erythrocytes), read-out: Activity"}, "Staphylococcus aureus [3]": {"tested_on": "Staphylococcus aureus", "assay": "Induction of cytoplasmic membrane depolarization in Staphylococcus aureus KCTC 1621 at 2 times MIC concentration by DiSC3(5)-dye based fluorescence spectrophotometry", "type": "functional, organism-based"}, "RAW264.7": {"tested_on": "RAW264.7", "assay": "Cytotoxicity against mouse RAW264.7 cells at 32 uM after 48 hrs by MTT assay relative to control", "type": "cell-based", "details": "raw264.7, 48 h"}, "Escherichia coli": {"tested_on": "Escherichia coli", "assay": "Induction of membrane permeabilization in Escherichia coli KCTC 1682 assessed as PI-positive cells at 4 uM after 1 to 2 hrs by propidium iodide-staining based flow cytometry (reference value: 2.36%)", "type": "functional"}, "Staphylococcus aureus [4]": {"tested_on": "Staphylococcus aureus", "assay": "Induction of membrane permeabilization in Staphylococcus aureus KCTC 1621 at 2 times MIC concentration up to 300 secs by SYTOX green uptake assay", "type": "functional, organism-based"}}, "note": "The source made the active and inactive calls. No cut-off for these calls is given here."}
{"compound": "CC[C@H](C)[C@H](NC(=O)CN)C(=O)NCC(=O)N[C@@H](C)C(=O)N[C@H](C(=O)N[C@@H](CC(C)C)C(=O)N[C@@H](CCCCN)C(=O)N[C@H](C(=O)N[C@@H](CC(C)C)C(=O)N[C@H](C(=O)N[C@H](C(=O)NCC(=O)N[C@@H](CC(C)C)C(=O)N1CCC[C@H]1C(=O)N[C@@H](C)C(=O)N[C@@H](CC(C)C)C(=O)N[C@H](C(=O)N[C@@H](CO)C(=O)N[C@@H](Cc1c[nH]c2ccccc12)C(=O)N[C@H](C(=O)N[C@@H](CCCCN)C(=O)N[C@@H](CCCNC(=N)N)C(=O)N[C@@H](CCCCN)C(=O)N[C@@H](CCCNC(=N)N)C(=O)N[C@@H](CCC(N)=O)C(=O)N[C@@H](CCC(N)=O)C(N)=O)[C@@H](C)CC)[C@@H](C)CC)[C@@H](C)O)[C@@H](C)O)C(C)C)C(C)C", "note": "[MELITTIN]", "values": [{"measurement": "Activity", "setting": "Staphylococcus aureus [1]", "result": "inactive"}, {"measurement": "hemolysis at 16 µM", "setting": "[2]", "result": 63, "unit": "%"}, {"measurement": "Activity", "setting": "Staphylococcus aureus [3]", "result": "Active"}, {"measurement": "Activity", "setting": "RAW264.7", "result": 100, "unit": "%"}, {"measurement": "Activity", "setting": "Escherichia coli", "result": 55.5, "unit": "%"}, {"measurement": "Activity", "setting": "Staphylococcus aureus [4]", "result": "Active"}]}
